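These data come from cells grown in 96-well plates and exposed to compound for 48 hours at five concentrations. GI50: concentration for 50% inhibition of growth. At the TGI there is no net growth.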

Common to all, as to assay: inhibition of tumour cell growth, NCI panel, 48 h
The subject of test [1] is HL-60(TB) leukemia.
For test [2], the system named is SF-295 CNS.
The test system of test [3] is SK-OV-3 ovarian.
The test system of test [4] is SN12C renal.
Test [5] relates to RXF 393 renal.
The test system of test [6] is SK-MEL-28 melanoma.
Test [7] has as its system LOX IMVI melanoma.
Test [8] concerns MALME-3M melanoma.
Test [9] deals with PC-3 prostate.
Test [10] concerns K-562 leukemia.

Turning to `COc1cc(F)c(F)c(Nc2ccc(I)cc2F)c1NS(=O)(=O)C1(CC(O)CO)CC1` (centres undefined), the GI50 in test [1] was 7190 nM; in test [2] it was 15000 nM; in test [3], 25800 nM; in test [4], 12500 nM; in test [5] it was 5780 nM; in test [6] it was 3020 nM. Also, the GI50 in [7] was 4920 nM; in test [8], 1020 nM; in test [9] it was 15100 nM; in test [10] it was 15700 nM. The TGI is 57700 nM in test [1]; 32500 nM in test [2]; greater than 79600 nM in [3]; 38600 nM in test [4]; 19700 nM in test [5]; 13700 nM in test [6]. In addition, the TGI is 17600 nM in [7], 8020 nM in test [8], greater than 57500 nM in test [9] and greater than 81700 nM in [10].

Turning to `O=C(/C=C/c1ccco1)Nc1ncc(Cc2cc(Cl)ccc2Cl)s1`, the GI50 in test [1] is 48.2 nM; in test [2], 45 nM; in test [3], 53.8 nM; in [4], 117 nM; in [5], 32.8 nM; in test [6], 2130 nM. Also, the GI50 was 76.2 nM in [7], 76.9 nM in [8], 42.1 nM in test [9] and 34.4 nM in test [10]. The TGI in test [1] was 159 nM; in test [2] it was greater than 100000 nM; in test [3], greater than 100000 nM; in [4] it was greater than 100000 nM; in test [5], 303 nM; in test [6], greater than 100000 nM. The TGI in test [7], in test [8], in test [9] and in test [10] was greater than 100000 nM throughout.

Consider `CCCCCn1sc(=O)n(Cc2ccc(CNC(=O)C(C)c3ccc(CC(C)C)cc3)cc2)c1=O` (centres undefined), for which the GI50 in test [1] is 1680 nM; in [2], 1740 nM; in test [3] it was 3500 nM; in test [4], 1100 nM; in [5] it was 727 nM; in test [6], 1430 nM. The GI50 was 474 nM in test [7], 1430 nM in test [8], 876 nM in [9] and 602 nM in [10]. For the same compound, the TGI is greater than 20500 nM in [1]; 3920 nM in test [2]; 14700 nM in [3]; 2370 nM in [4]; 1940 nM in test [5]; 2750 nM in [6]. Further, the TGI in test [7] was 1520 nM; in [8], 2800 nM; in test [9], 2470 nM; in [10], greater than 61100 nM.

As for `CC[C@H](C)[C@H](NC(=O)CN(C)C)C(=O)N(C)[C@H](C[C@@H](OC(C)=O)c1nc(C(=O)NC23C4C5C2C2C3C4C52C(=O)OC)cs1)C(C)C` (some centres undefined), the GI50 in [1] was 77.7 nM; in test [2] it was 552 nM; in [3] it was 4150 nM; in [4], 276 nM; in [5] it was 387 nM; in [6], 1380 nM. The GI50 is 321 nM in [7], 768 nM in test [9] and 138 nM in test [10]. Besides, the TGI was 242 nM in test [1]; greater than 33200 nM in test [2]; greater than 33200 nM in test [3]; greater than 18800 nM in test [4]; greater than 33200 nM in test [5]; greater than 33200 nM in [6]. In addition, the TGI in test [7], in test [8], in test [9] and in test [10] was greater than 33200 nM throughout.

For the origin of these results see PubChem BioAssay (NCI).
